Experimental data taken from patent publication US20250163104A1, “MACROCYCLIC IMMUNOMODULATORS” (priority 2021, published 2025).
*1 amine or outer side, *2 acyl side, *3 side chain or, on linkers, in order; H or OH if unused. Where a SMILES comes first, the peptide text is derived from it. Bridges are numbered along the chain shown (N, C = ends). [ ]: non-standard residue; d: D form. Bip(4'-NHAc) = CC(=O)Nc1ccc(-c2ccc(C[C@H](N)C(=O)O)cc2)cc1; Ala(indol-4-yl) = N[C@@H](Cc1cccc2[nH]ccc12)C(=O)O; Trp(5-CN) = N#Cc1ccc2[nH]cc(C[C@H](N)C(=O)O)c2c1; Phe(3,4-Cl2) = N[C@@H](Cc1ccc(Cl)c(Cl)c1)C(=O)O; Phe(3-CF3) = N[C@@H](Cc1cccc(C(F)(F)F)c1)C(=O)O; Ala(morpholin-4-yl) = N[C@@H](CN1CCOCC1)C(=O)O; Phe(4-COOH) = N[C@@H](Cc1ccc(C(=O)O)cc1)C(=O)O; Phe(4-CH2NH2) = NCc1ccc(C[C@H](N)C(=O)O)cc1; X5 = O=C([C@H](Cc1ccc2ncccc2c1)N[*:1])[*:2]; Bip = N[C@@H](Cc1ccc(-c2ccccc2)cc1)C(=O)O; Phe(4-NH2) = Nc1ccc(C[C@H](N)C(=O)O)cc1; 1Nal = N[C@@H](Cc1cccc2ccccc12)C(=O)O; 2Nal = N[C@@H](Cc1ccc2ccccc2c1)C(=O)O; Bta = N[C@@H](Cc1csc2ccccc12)C(=O)O; hPhe = N[C@@H](CCc1ccccc1)C(=O)O; Cha = N[C@@H](CC1CCCCC1)C(=O)O; Orn = NCCC[C@H](N)C(=O)O; Dab = NCC[C@H](N)C(=O)O

target: T1, human PD-1 / PD-L1-Ig binding on Jurkat cell line over-expressing human PD-1 (Jurkat-PD-1) (Homo sapiens, UniProt Q15116); experiment: Jurkat-PD-1 Cell Binding High-Content Screening Assay (CBA); assay type: cell-based; conditions: Jurkat-PD-1 cells, PE-labeled PD-L1-Ig 20 nM final; read-out: Jurkat HPD1_PDL1 IC50
T1 construct: expressed in transfected cells; host or cells: Jurkat
T1 sequence (Q15116 25-288): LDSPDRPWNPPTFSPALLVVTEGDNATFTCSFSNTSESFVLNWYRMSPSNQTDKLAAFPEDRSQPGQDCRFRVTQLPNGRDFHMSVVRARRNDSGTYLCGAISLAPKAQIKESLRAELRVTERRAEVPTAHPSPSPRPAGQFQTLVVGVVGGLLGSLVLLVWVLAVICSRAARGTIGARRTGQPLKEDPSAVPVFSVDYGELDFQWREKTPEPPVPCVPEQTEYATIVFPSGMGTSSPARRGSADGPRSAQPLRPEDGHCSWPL
In short: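 Cell-bound PE-labeled PD-L1-Ig (20 nM final, 1 h) measured by high-content imaging after fixation and Hoechst 33342 counterstain. Compound was applied first for 2 h at 37° C. to Jurkat cells over-expressing human PD-1 in DMEM with 10% FCS.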

How did the IC50 turn out when `CC(=O)Nc1ccc(-c2ccc(C[C@@H]3NC(=O)[C@H](Cc4cccc(C(F)(F)F)c4)NC(=O)[C@H](CC(=O)O)NC(=O)[C@H](Cc4ccc(C(=O)O)cc4)NC(=O)[C@H](CN4CCOCC4)NC(=O)CSC[C@@H](C(=O)N[C@@H](CCN)C(N)=O)NC(=O)[C@H](CCC(=O)O)NC(=O)[C@H](C(C)C)NC(=O)[C@H](CC4CCCCC4)NC(=O)[C@H](CCN)NC(=O)[C@@H](CC(C)C)NC(=O)[C@H](CCCN)NC(=O)[C@H](Cc4ccc(C(=O)O)cc4)NC(=O)[C@H](Cc4ccc(-c5ccccc5)cc4)NC3=O)cc2)cc1` [Example 2736] ({CH2CO}-[Ala(morpholin-4-yl)][Phe(4-COOH)]D[Phe(3-CF3)][Bip(4'-NHAc)][Bip][Phe(4-COOH)][Orn][dL][Dab][Cha]VEC[Dab]-NH2; thioether N-14) was run?
The IC50 was 1.1 nM.

For `CC(C)C[C@H]1NC(=O)[C@H](CCCN)NC(=O)[C@H](Cc2ccc(C(=O)O)cc2)NC(=O)[C@H](Cc2ccc(-c3ccccc3)cc2)NC(=O)[C@H](Cc2cccc3ccccc23)NC(=O)[C@H](Cc2cccc(C(F)(F)F)c2)NC(=O)[C@H](CC(=O)O)NC(=O)[C@H](Cc2ccc(C(=O)O)cc2)NC(=O)[C@H](CN2CCOCC2)NC(=O)CSC[C@@H](C(=O)N[C@@H](CCN)C(N)=O)NC(=O)[C@H](CCC(=O)O)NC(=O)[C@H](C(C)C)NC(=O)[C@H](CC2CCCCC2)NC(=O)[C@H](CCN)NC1=O` [Example 2737] ({CH2CO}-[Ala(morpholin-4-yl)][Phe(4-COOH)]D[Phe(3-CF3)][1Nal][Bip][Phe(4-COOH)][Orn][dL][Dab][Cha]VEC[Dab]-NH2; thioether N-14), which IC50 is on record?
Its IC50 is 5.4 nM.

How did the IC50 turn out when `CC(C)C[C@H]1NC(=O)[C@H](CCCN)NC(=O)[C@H](Cc2ccc(C(=O)O)cc2)NC(=O)[C@H](Cc2ccc(-c3ccccc3)cc2)NC(=O)[C@H](Cc2ccc3ccccc3c2)NC(=O)[C@H](Cc2cccc(C(F)(F)F)c2)NC(=O)[C@H](CC(=O)O)NC(=O)[C@H](Cc2ccc(C(=O)O)cc2)NC(=O)[C@H](CN2CCOCC2)NC(=O)CSC[C@@H](C(=O)N[C@@H](CCN)C(N)=O)NC(=O)[C@H](CCC(=O)O)NC(=O)[C@H](C(C)C)NC(=O)[C@H](CC2CCCCC2)NC(=O)[C@H](CCN)NC1=O` [Example 2738] ({CH2CO}-[Ala(morpholin-4-yl)][Phe(4-COOH)]D[Phe(3-CF3)][2Nal][Bip][Phe(4-COOH)][Orn][dL][Dab][Cha]VEC[Dab]-NH2; thioether N-14) was run?
The IC50 was 2.3 nM.

How did the IC50 turn out when `CC(C)C[C@H]1NC(=O)[C@H](CCCN)NC(=O)[C@H](Cc2ccc(C(=O)O)cc2)NC(=O)[C@H](Cc2ccc(-c3ccccc3)cc2)NC(=O)[C@H](Cc2csc3ccccc23)NC(=O)[C@H](Cc2cccc(C(F)(F)F)c2)NC(=O)[C@H](CC(=O)O)NC(=O)[C@H](Cc2ccc(C(=O)O)cc2)NC(=O)[C@H](CN2CCOCC2)NC(=O)CSC[C@@H](C(=O)N[C@@H](CCN)C(N)=O)NC(=O)[C@H](CCC(=O)O)NC(=O)[C@H](C(C)C)NC(=O)[C@H](CC2CCCCC2)NC(=O)[C@H](CCN)NC1=O` [Example 2739] ({CH2CO}-[Ala(morpholin-4-yl)][Phe(4-COOH)]D[Phe(3-CF3)][Bta][Bip][Phe(4-COOH)][Orn][dL][Dab][Cha]VEC[Dab]-NH2; thioether N-14) was run?
The IC50 was 3.2 nM.

`CC(C)C[C@H]1NC(=O)[C@H](CCCN)NC(=O)[C@H](Cc2ccc(C(=O)O)cc2)NC(=O)[C@H](Cc2ccc(-c3ccccc3)cc2)NC(=O)[C@H](Cc2c[nH]c3ccc(C#N)cc23)NC(=O)[C@H](Cc2cccc(C(F)(F)F)c2)NC(=O)[C@H](CC(=O)O)NC(=O)[C@H](Cc2ccc(C(=O)O)cc2)NC(=O)[C@H](CN2CCOCC2)NC(=O)CSC[C@@H](C(=O)N[C@@H](CCN)C(N)=O)NC(=O)[C@H](CCC(=O)O)NC(=O)[C@H](C(C)C)NC(=O)[C@H](CC2CCCCC2)NC(=O)[C@H](CCN)NC1=O` [Example 2740] ({CH2CO}-[Ala(morpholin-4-yl)][Phe(4-COOH)]D[Phe(3-CF3)][Trp(5-CN)][Bip][Phe(4-COOH)][Orn][dL][Dab][Cha]VEC[Dab]-NH2; thioether N-14) was tested. Which IC50 did it give?
The IC50 was 4.8 nM.

How did the IC50 turn out when `CC(C)C[C@H]1NC(=O)[C@H](CCCN)NC(=O)[C@H](Cc2ccc(C(=O)O)cc2)NC(=O)[C@H](Cc2ccc(-c3ccccc3)cc2)NC(=O)[C@H](Cc2ccc3ncccc3c2)NC(=O)[C@H](Cc2cccc(C(F)(F)F)c2)NC(=O)[C@H](CC(=O)O)NC(=O)[C@H](Cc2ccc(C(=O)O)cc2)NC(=O)[C@H](CN2CCOCC2)NC(=O)CSC[C@@H](C(=O)N[C@@H](CCN)C(N)=O)NC(=O)[C@H](CCC(=O)O)NC(=O)[C@H](C(C)C)NC(=O)[C@H](CC2CCCCC2)NC(=O)[C@H](CCN)NC1=O` [Example 2741] ({CH2CO}-[Ala(morpholin-4-yl)][Phe(4-COOH)]D[Phe(3-CF3)][X5][Bip][Phe(4-COOH)][Orn][dL][Dab][Cha]VEC[Dab]-NH2; thioether N-14) was run?
The IC50 was 2.3 nM.

How did the IC50 turn out when `CC(C)C[C@H]1NC(=O)[C@H](CCCN)NC(=O)[C@H](Cc2ccc(C(=O)O)cc2)NC(=O)[C@H](Cc2ccc(-c3ccccc3)cc2)NC(=O)[C@H](Cc2cccc3[nH]ccc23)NC(=O)[C@H](Cc2cccc(C(F)(F)F)c2)NC(=O)[C@H](CC(=O)O)NC(=O)[C@H](Cc2ccc(C(=O)O)cc2)NC(=O)[C@H](CN2CCOCC2)NC(=O)CSC[C@@H](C(=O)N[C@@H](CCN)C(N)=O)NC(=O)[C@H](CCC(=O)O)NC(=O)[C@H](C(C)C)NC(=O)[C@H](CC2CCCCC2)NC(=O)[C@H](CCN)NC1=O` [Example 2742] ({CH2CO}-[Ala(morpholin-4-yl)][Phe(4-COOH)]D[Phe(3-CF3)][Ala(indol-4-yl)][Bip][Phe(4-COOH)][Orn][dL][Dab][Cha]VEC[Dab]-NH2; thioether N-14) was run?
Its IC50 is 4.6 nM.

`CC(C)C[C@H]1NC(=O)[C@H](CCCN)NC(=O)[C@H](Cc2ccc(C(=O)O)cc2)NC(=O)[C@H](Cc2ccc(-c3ccccc3)cc2)NC(=O)[C@H](Cc2ccc(N)cc2)NC(=O)[C@H](Cc2cccc(C(F)(F)F)c2)NC(=O)[C@H](CC(=O)O)NC(=O)[C@H](Cc2ccc(C(=O)O)cc2)NC(=O)[C@H](CN2CCOCC2)NC(=O)CSC[C@@H](C(=O)N[C@@H](CCN)C(N)=O)NC(=O)[C@H](CCC(=O)O)NC(=O)[C@H](C(C)C)NC(=O)[C@H](CC2CCCCC2)NC(=O)[C@H](CCN)NC1=O` [Example 2743] ({CH2CO}-[Ala(morpholin-4-yl)][Phe(4-COOH)]D[Phe(3-CF3)][Phe(4-NH2)][Bip][Phe(4-COOH)][Orn][dL][Dab][Cha]VEC[Dab]-NH2; thioether N-14) was tested. Which IC50 did it give?
Its IC50 is 2.2 nM.

Which IC50 does the source give for `CC(C)C[C@H]1NC(=O)[C@H](CCCN)NC(=O)[C@H](Cc2ccc(C(=O)O)cc2)NC(=O)[C@H](Cc2ccc(-c3ccccc3)cc2)NC(=O)[C@H](CCc2ccccc2)NC(=O)[C@H](Cc2cccc(C(F)(F)F)c2)NC(=O)[C@H](CC(=O)O)NC(=O)[C@H](Cc2ccc(C(=O)O)cc2)NC(=O)[C@H](CN2CCOCC2)NC(=O)CSC[C@@H](C(=O)N[C@@H](CCN)C(N)=O)NC(=O)[C@H](CCC(=O)O)NC(=O)[C@H](C(C)C)NC(=O)[C@H](CC2CCCCC2)NC(=O)[C@H](CCN)NC1=O` [Example 2744] ({CH2CO}-[Ala(morpholin-4-yl)][Phe(4-COOH)]D[Phe(3-CF3)][hPhe][Bip][Phe(4-COOH)][Orn][dL][Dab][Cha]VEC[Dab]-NH2; thioether N-14) here?
Its IC50 is 3.4 nM.

`CC(C)C[C@H]1NC(=O)[C@H](CCCN)NC(=O)[C@H](Cc2ccc(C(=O)O)cc2)NC(=O)[C@H](Cc2ccc(-c3ccccc3)cc2)NC(=O)[C@H](Cc2ccc(Cl)c(Cl)c2)NC(=O)[C@H](Cc2cccc(C(F)(F)F)c2)NC(=O)[C@H](CC(=O)O)NC(=O)[C@H](Cc2ccc(C(=O)O)cc2)NC(=O)[C@H](CN2CCOCC2)NC(=O)CSC[C@@H](C(=O)N[C@@H](CCN)C(N)=O)NC(=O)[C@H](CCC(=O)O)NC(=O)[C@H](C(C)C)NC(=O)[C@H](CC2CCCCC2)NC(=O)[C@H](CCN)NC1=O` [Example 2745] ({CH2CO}-[Ala(morpholin-4-yl)][Phe(4-COOH)]D[Phe(3-CF3)][Phe(3,4-Cl2)][Bip][Phe(4-COOH)][Orn][dL][Dab][Cha]VEC[Dab]-NH2; thioether N-14) was tested. Which IC50 did it give?
Its IC50 is 2.3 nM.

Which IC50 does the source give for `CC(C)C[C@H]1NC(=O)[C@H](CCCN)NC(=O)[C@H](Cc2ccc(C(=O)O)cc2)NC(=O)[C@H](Cc2ccc(-c3ccccc3)cc2)NC(=O)[C@H](Cc2ccc(-c3ccccc3)cc2)NC(=O)[C@H](Cc2cccc(C(F)(F)F)c2)NC(=O)[C@H](CC(=O)O)NC(=O)[C@H](Cc2ccc(C(=O)O)cc2)NC(=O)[C@H](CN2CCOCC2)NC(=O)CSC[C@@H](C(=O)N[C@@H](CCN)C(N)=O)NC(=O)[C@H](CCC(=O)O)NC(=O)[C@H](C(C)C)NC(=O)[C@H](CC2CCCCC2)NC(=O)[C@H](CCN)NC1=O` [Example 2746] ({CH2CO}-[Ala(morpholin-4-yl)][Phe(4-COOH)]D[Phe(3-CF3)][Bip][Bip][Phe(4-COOH)][Orn][dL][Dab][Cha]VEC[Dab]-NH2; thioether N-14) here?
Its IC50 is 3.7 nM.

`CC(C)C[C@H]1NC(=O)[C@H](CCCN)NC(=O)[C@H](Cc2ccc(C(=O)O)cc2)NC(=O)[C@H](Cc2ccc(-c3ccccc3)cc2)NC(=O)[C@H](Cc2ccc(CN)cc2)NC(=O)[C@H](Cc2cccc(C(F)(F)F)c2)NC(=O)[C@H](CC(=O)O)NC(=O)[C@H](Cc2ccc(C(=O)O)cc2)NC(=O)[C@H](CN2CCOCC2)NC(=O)CSC[C@@H](C(=O)N[C@@H](CCN)C(N)=O)NC(=O)[C@H](CCC(=O)O)NC(=O)[C@H](C(C)C)NC(=O)[C@H](CC2CCCCC2)NC(=O)[C@H](CCN)NC1=O` [Example 2747] ({CH2CO}-[Ala(morpholin-4-yl)][Phe(4-COOH)]D[Phe(3-CF3)][Phe(4-CH2NH2)][Bip][Phe(4-COOH)][Orn][dL][Dab][Cha]VEC[Dab]-NH2; thioether N-14) was tested. Which IC50 did it give?
The IC50 was 2.8 nM.
